Test results from ChEMBL document CHEMBL1641542, “Structure-activity relationships of 2,4-diphenyl-1H-imidazole analogs as CB2 receptor agonists for the treatment of chronic pain” (Bioorg Med Chem Lett, 2011).

Legend:
[1] = biological target: T1, Cannabinoid receptor 2 (Homo sapiens, UniProt P34972); assay: Agonist activity at human cloned CB2 receptor expressed in CHO cells assessed as inhibition of forskolin-induced cAMP accumulation; assay type: functional, cell-based
[2] = AUC (0 to 6 hrs) in rat at 10 mg/kg, po; assay type: ADME, organism-based; design: time < 6 hr, dose 10 mg/kg, route oral; details: plasma
[3] = biological target: T2, Cannabinoid receptor 1 (Homo sapiens, UniProt P21554); assay: Agonist activity at human cloned CB1 receptor expressed in CHO cells assessed as inhibition of forskolin-induced cAMP accumulation; assay type: functional, cell-based
[4] = biological target: T1, Cannabinoid receptor 2; assay: Agonist activity at human cloned CB2 receptor expressed in CHO cells assessed as inhibition of forskolin-induced cAMP accumulation relative to control; assay type: functional, cell-based
[5] = biological target: T2, Cannabinoid receptor 1; assay: Displacement of [3H]-CP55940 from human cloned CB1 receptor expressed in CHO cells; assay type: cell-based
[6] = biological target: T2, Cannabinoid receptor 1; assay: Agonist activity at human cloned CB1 receptor expressed in CHO cells assessed as inhibition of forskolin-induced cAMP accumulation relative to control; assay type: functional, cell-based
[7] = biological target: T1, Cannabinoid receptor 2; assay: Displacement of [3H]-CP55940 from human cloned CB2 receptor expressed in CHO cells; assay type: cell-based

T1 sequence (P34972 whole entry): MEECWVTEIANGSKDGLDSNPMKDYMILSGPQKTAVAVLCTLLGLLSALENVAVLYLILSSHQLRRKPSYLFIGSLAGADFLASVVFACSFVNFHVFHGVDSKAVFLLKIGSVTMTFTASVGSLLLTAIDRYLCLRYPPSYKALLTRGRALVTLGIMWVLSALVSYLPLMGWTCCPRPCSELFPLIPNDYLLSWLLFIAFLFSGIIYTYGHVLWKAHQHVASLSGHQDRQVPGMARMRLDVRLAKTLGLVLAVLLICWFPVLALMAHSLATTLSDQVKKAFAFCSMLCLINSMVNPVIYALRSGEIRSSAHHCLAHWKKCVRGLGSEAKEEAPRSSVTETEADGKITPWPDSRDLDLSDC
T2 sequence (P21554 whole entry): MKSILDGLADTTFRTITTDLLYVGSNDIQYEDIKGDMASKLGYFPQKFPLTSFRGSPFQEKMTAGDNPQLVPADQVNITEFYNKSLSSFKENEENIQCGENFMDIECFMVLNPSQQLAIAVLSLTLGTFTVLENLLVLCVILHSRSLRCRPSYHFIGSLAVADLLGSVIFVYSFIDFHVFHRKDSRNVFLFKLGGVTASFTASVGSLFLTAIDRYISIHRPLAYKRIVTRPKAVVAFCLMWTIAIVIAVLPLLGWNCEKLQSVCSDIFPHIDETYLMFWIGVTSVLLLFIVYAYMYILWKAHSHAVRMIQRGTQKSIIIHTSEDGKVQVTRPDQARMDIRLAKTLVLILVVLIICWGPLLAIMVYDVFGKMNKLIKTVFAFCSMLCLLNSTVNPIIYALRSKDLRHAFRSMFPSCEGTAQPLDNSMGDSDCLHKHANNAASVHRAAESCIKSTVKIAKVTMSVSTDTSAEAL

Work on `FC1(F)CCN(Cc2cccc(-c3nc(-c4cccc(C(F)(F)F)c4)c[nH]3)c2)CC1` yielded an EC50 [1] of 5 nM, an AUC(0-t) at 6 h [2] of 1.11 µM·h and an EC50 [3] of 2550 nM. For the same compound, the Emax [4] was 100%.
`COc1ccc(-c2c[nH]c(-c3cccc(CN4CCC(F)(F)CC4)c3)n2)c(F)c1` gave an EC50 [1] of 3 nM, an EC50 [3] of 39 nM and an Emax [4] of 107%.
`Clc1cccc(-c2c[nH]c(-c3cccc(CN4CCCCC4)c3)n2)c1` showed an EC50 [1] of 10 nM, an EC50 [3] of 1050 nM and an Emax [4] of 114%.
`O=C(c1ccccc1)n1cc(-c2cccc(C(F)(F)F)c2)nc1-c1cccc(CN2CCOCC2)c1` showed an EC50 [1] of 11 nM and an Emax [4] of 101%.
Compound `FC1CCN(Cc2cccc(-c3nc(-c4ccc(Cl)cc4Cl)c[nH]3)c2)CC1` has an EC50 [1] of 10 nM, an EC50 [3] of 2450 nM and an Emax [4] of 107%.
For `CC1CCN(Cc2cccc(-c3nc(-c4cccc(Cl)c4Cl)c[nH]3)c2)CC1`, the EC50 [1] was 25 nM, the EC50 [3] was > 10000 nM and the Emax [4] was 107%.
With `COc1ccc(F)c(-c2c[nH]c(-c3cccc(CN4CCC(F)(F)CC4)c3)n2)c1` the EC50 [1] was 5 nM, the EC50 [3] was 25 nM and the Emax [4] was 107%.
For `FC1CCN(Cc2ccccc2-c2nc(-c3cccc(C(F)(F)F)c3)c[nH]2)CC1`, the EC50 [1] was 130 nM, the EC50 [3] was > 10000 nM and the Emax [4] was 108%.
For `COc1ccc(F)c(-c2c[nH]c(-c3cccc(CN4CCCCC4)c3)n2)c1`, the EC50 [1] was 4 nM, the EC50 [3] was 320 nM and the Emax [4] was 108%.
With `O=S(=O)(c1ccccc1)n1cc(-c2cccc(C(F)(F)F)c2)nc1-c1cccc(CN2CCOCC2)c1` the EC50 [1] was > 1000 nM.
For `FC(F)(F)c1cccc(-c2cn(-c3ccccc3)c(-c3cccc(CN4CCOCC4)c3)n2)c1`, the EC50 [1] was > 1000 nM.
In the case of `Clc1ccc(-c2c[nH]c(-c3cccc(CN4CCCCC4)c3)n2)c(Cl)c1`, the EC50 [1] is reported as 24 nM, the EC50 [3] is reported as 1800 nM and the Emax [4] is reported as 104%.
`CC1CN(Cc2cccc(-c3nc(-c4cccc(Cl)c4)c[nH]3)c2)CCO1` (centres undefined) gave an EC50 [1] of 14 nM, an EC50 [3] of 3250 nM and an Emax [4] of 102%.
For `CC1CN(Cc2ccccc2-c2nc(-c3cccc(C(F)(F)F)c3)c[nH]2)CCO1` (centres undefined), the EC50 [1] was 510 nM, the EC50 [3] was > 10000 nM and the Emax [4] was 102%.
With `CC(C)n1cc(-c2cccc(C(F)(F)F)c2)nc1-c1cccc(CN2CCOCC2)c1` the EC50 [1] was 218 nM and the EC50 [3] was > 1000 nM.
With `OCC1CCCN(Cc2cccc(-c3nc(-c4cccc(C(F)(F)F)c4)c[nH]3)c2)C1` (centres undefined) the EC50 [1] was 61 nM, the EC50 [3] was > 1000 nM and the Emax [4] was 91%.
`CCOc1ccc(F)c(-c2c[nH]c(-c3cccc(CN4CCCCC4)c3)n2)c1` showed an EC50 [1] of 87 nM, an EC50 [3] of 8500 nM and an Emax [4] of 102%.
In the case of `FC(F)(F)c1cccc(-c2cn(CC3CC3)c(-c3cccc(CN4CCOCC4)c3)n2)c1`, the EC50 [1] is reported as 412 nM, the EC50 [3] is reported as > 1000 nM and the Emax [4] is reported as 68%.
`FC1(F)CCCN(Cc2cccc(-c3nc(-c4cccc(C(F)(F)F)c4)c[nH]3)c2)C1` gave an EC50 [1] of 25 nM, an AUC(0-t) at 6 h [2] of 0.851 µM·h and an Emax [4] of 98%.
For `FC1CCN(Cc2cccc(-c3nc(-c4cccc(Cl)c4Cl)c[nH]3)c2)CC1`, the EC50 [1] was 5 nM, the EC50 [3] was 1290 nM and the Emax [4] was 119%.
`COc1ccc(F)c(-c2c[nH]c(-c3cccc(CN4CCC(F)CC4)c3)n2)c1` showed an EC50 [1] of 5 nM, an EC50 [3] of 87 nM and an Emax [4] of 106%.
With `CC1CCN(Cc2cccc(-c3nc(-c4cccc(C(F)(F)F)c4)c[nH]3)c2)CC1` the EC50 [1] was 21 nM, the AUC(0-t) at 6 h [2] was 0.881 µM·h and the EC50 [3] was > 10000 nM. For the same compound, the Emax [4] was 97%.
Work on `Brc1cccc(-c2c[nH]c(-c3cccc(CN4CCOCC4)c3)n2)c1` yielded an EC50 [1] of 5 nM, an AUC(0-t) at 6 h [2] of 0.158 µM·h and an EC50 [3] of 665 nM. The Emax [4] was 112%.
With `O[C@H]1CCCN(Cc2cccc(-c3nc(-c4cccc(C(F)(F)F)c4)c[nH]3)c2)C1` the EC50 [1] was 113 nM, the EC50 [3] was > 10000 nM and the Emax [4] was 92%.
In the case of `CC(=O)n1cc(-c2cccc(C(F)(F)F)c2)nc1-c1cccc(CN2CCOCC2)c1`, the EC50 [1] is reported as 9 nM, the EC50 [3] is reported as > 1000 nM and the Emax [4] is reported as 102%.
Work on `C[C@H]1COCCN1Cc1cccc(-c2nc(-c3cccc(C(F)(F)F)c3)c[nH]2)c1` yielded an EC50 [1] of 169 nM and an Emax [4] of 78%.
Compound `FC1CCN(Cc2cccc(-c3nc(-c4cccc(C(F)(F)F)c4)c[nH]3)c2)CC1` has an EC50 [1] of 9 nM, an AUC(0-t) at 6 h [2] of 0.524 µM·h and an EC50 [3] of 2290 nM. For the same compound, the Emax [4] was 107%.
Compound `CC1CCCN(Cc2cccc(-c3nc(-c4cccc(C(F)(F)F)c4)c[nH]3)c2)C1` (centres undefined) has an EC50 [1] of 70 nM, an AUC(0-t) at 6 h [2] of 1.41 µM·h and an Emax [4] of 87%.
In the case of `FC(F)(F)c1cccc(-c2cn(Cc3ccccc3)c(-c3cccc(CN4CCOCC4)c3)n2)c1`, the EC50 [1] is reported as > 1000 nM and the EC50 [3] is reported as > 1000 nM.
With `Clc1cccc(-c2c[nH]c(-c3cccc(CN4CCCCC4)c3)n2)c1Cl` the EC50 [1] was 8 nM, the EC50 [3] was 12600 nM and the Emax [4] was 115%.
`COc1ccc(F)c(-c2c[nH]c(-c3cccc(CN4CCOCC4)c3)n2)c1` showed an EC50 [1] of 4 nM, an EC50 [3] of 140 nM and an Emax [4] of 109%.
With `FC(F)(F)c1cccc(-c2c[nH]c(-c3cccc(CN4CCSCC4)c3)n2)c1` the EC50 [1] was 6 nM, the AUC(0-t) at 6 h [2] was 0.042 µM·h and the EC50 [3] was > 1000 nM. The Emax [4] was 100%.
With `FC(F)(F)c1cccc(-c2c[nH]c(-c3cccc(CN4CCOCC4)c3)n2)c1` the EC50 [1] was 8 nM, the AUC(0-t) at 6 h [2] was 0.866 µM·h and the EC50 [3] was > 1000 nM. For the same compound, the Ki [5] was 1000 nM, the Emax [4] was 80% and the Emax [6] was 67%. It also gave a Ki [7] of 42 nM.
For `CC1CN(Cc2cccc(-c3nc(-c4cccc(C(F)(F)F)c4)c[nH]3)c2)CCO1` (centres undefined), the EC50 [1] was 25 nM, the AUC(0-t) at 6 h [2] was 1.99 µM·h and the EC50 [3] was > 10000 nM. The Emax [4] was 97%.
In the case of `FC(F)(F)c1cccc(-c2c[nH]c(-c3cccc(CN4CCCCC4)c3)n2)c1`, the EC50 [1] is reported as 14 nM, the AUC(0-t) at 6 h [2] is reported as 0.537 µM·h and the EC50 [3] is reported as > 10000 nM. The Emax [4] was 104%.
Compound `FC1CCN(Cc2cccc(-c3nc(-c4cccc(Cl)c4)c[nH]3)c2)CC1` has an EC50 [1] of 8 nM, an EC50 [3] of 130 nM and an Emax [4] of 107%.
`FC1CCCN(Cc2cccc(-c3nc(-c4cccc(C(F)(F)F)c4)c[nH]3)c2)C1` (centres undefined) showed an EC50 [1] of 16 nM, an AUC(0-t) at 6 h [2] of 0.682 µM·h and an Emax [4] of 98%.
